Drawing on article PMC9073274, “The toxic effects of alizarin red S on catalase at the molecular level” (RSC Advances, 2019), this text covers inhibition and Kd for one compound.

Experiment [1] has as its target T1, CAT (catalase from bovine liver) (Bos taurus, UniProt P00432).
T1 construct: native commercial enzyme from bovine liver (Beijing Solarbio); heme homotetramer, 506 residues per subunit
T1 sequence (P00432 2-527): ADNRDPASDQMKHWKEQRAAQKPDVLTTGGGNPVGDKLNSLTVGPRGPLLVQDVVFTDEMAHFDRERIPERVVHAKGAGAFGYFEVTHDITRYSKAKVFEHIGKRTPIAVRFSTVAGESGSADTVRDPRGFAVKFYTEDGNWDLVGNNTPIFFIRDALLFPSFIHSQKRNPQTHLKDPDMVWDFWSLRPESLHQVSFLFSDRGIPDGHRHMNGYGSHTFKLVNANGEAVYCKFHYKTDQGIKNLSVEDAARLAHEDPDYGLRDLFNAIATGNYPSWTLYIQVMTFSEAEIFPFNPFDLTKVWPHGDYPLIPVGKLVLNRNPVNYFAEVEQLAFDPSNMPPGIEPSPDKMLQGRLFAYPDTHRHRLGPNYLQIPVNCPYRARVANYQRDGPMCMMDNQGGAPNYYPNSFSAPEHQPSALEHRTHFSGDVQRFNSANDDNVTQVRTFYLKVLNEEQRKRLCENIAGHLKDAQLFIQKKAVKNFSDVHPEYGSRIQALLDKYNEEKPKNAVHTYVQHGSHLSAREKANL
Put plainly: H2O2 decomposition, absorbance at […] nm. Type of experiment: biochemical.

In experiment [2] the target is T1, CAT (catalase from bovine liver). The experiment is described as follows: isothermal titration calorimetry, one-site model. The conditions noted are these: read-out: K (M^-1). In kind it is binding. The source says:
isothermal titration calorimetry, one-site model on CAT (catalase from bovine liver)

`O=C1c2ccccc2C(=O)c2c1cc(S(=O)(=O)O)c(O)c2O` [Alizarin red S] had an inhibition at 5 µM in experiment [1] of 23.8%. Further, the Kd in experiment [2] stood at 39.2 µM.
